The results in this text go back to paper PMC5540273, “Progress towards a public chemogenomic set for protein kinases and a call for contributions” (PLoS ONE, 2017).

Assay in all cases: KINOMEscan competition binding
Test [1] addresses JAK1(JH1domain-catalytic) (Homo sapiens, UniProt P23458). Particulars: read-out: %Inh JAK1(JH1domain-catalytic).
The next test has as its target EPHA2 (Homo sapiens, UniProt P29317). Particulars: read-out: %Inh EPHA2.
The target of a further test is FLT1 (Homo sapiens, UniProt P17948). Particulars: read-out: %Inh FLT1.
Another test addresses T1, ASK2 (Homo sapiens, UniProt O95382).
T1 sequence (O95382 1-1288): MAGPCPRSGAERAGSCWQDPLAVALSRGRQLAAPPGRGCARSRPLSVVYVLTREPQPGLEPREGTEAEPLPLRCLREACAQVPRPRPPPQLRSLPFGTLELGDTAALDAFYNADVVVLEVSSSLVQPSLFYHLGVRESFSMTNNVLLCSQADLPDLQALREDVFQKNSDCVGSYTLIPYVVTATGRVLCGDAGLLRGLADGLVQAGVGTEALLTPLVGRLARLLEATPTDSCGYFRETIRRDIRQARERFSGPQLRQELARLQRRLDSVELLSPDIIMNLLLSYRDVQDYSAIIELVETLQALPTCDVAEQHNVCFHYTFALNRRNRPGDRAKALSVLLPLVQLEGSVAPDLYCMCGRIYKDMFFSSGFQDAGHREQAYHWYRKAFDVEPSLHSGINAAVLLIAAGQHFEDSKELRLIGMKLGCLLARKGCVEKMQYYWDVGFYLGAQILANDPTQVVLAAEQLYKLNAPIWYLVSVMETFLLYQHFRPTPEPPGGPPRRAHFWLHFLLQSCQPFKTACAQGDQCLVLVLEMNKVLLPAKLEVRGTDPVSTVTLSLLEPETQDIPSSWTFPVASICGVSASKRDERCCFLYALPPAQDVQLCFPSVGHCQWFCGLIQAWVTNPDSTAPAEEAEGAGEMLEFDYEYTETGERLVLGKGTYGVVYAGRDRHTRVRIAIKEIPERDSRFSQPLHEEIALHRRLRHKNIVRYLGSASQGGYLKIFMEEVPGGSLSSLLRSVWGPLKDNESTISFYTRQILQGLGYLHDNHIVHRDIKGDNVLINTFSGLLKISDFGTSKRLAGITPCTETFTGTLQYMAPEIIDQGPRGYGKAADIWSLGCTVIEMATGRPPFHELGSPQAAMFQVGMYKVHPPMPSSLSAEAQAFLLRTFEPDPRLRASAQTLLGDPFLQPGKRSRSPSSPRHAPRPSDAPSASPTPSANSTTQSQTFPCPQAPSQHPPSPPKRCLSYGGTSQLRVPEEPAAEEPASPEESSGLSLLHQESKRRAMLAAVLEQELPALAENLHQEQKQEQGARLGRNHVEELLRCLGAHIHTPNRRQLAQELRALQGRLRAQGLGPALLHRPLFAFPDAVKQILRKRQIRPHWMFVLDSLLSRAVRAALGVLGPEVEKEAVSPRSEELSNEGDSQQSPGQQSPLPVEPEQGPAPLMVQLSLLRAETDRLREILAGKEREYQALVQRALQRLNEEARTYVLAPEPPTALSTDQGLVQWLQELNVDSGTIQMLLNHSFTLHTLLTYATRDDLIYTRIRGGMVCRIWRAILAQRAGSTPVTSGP
The settings on record: read-out: %Inh ASK2.

In another test the target is BMPR1B (Homo sapiens, UniProt O00238). The settings on record: read-out: %Inh BMPR1B.
A further test has as its target T2, EPHA1 (Homo sapiens, UniProt P21709).
T2 sequence (P21709 26-976): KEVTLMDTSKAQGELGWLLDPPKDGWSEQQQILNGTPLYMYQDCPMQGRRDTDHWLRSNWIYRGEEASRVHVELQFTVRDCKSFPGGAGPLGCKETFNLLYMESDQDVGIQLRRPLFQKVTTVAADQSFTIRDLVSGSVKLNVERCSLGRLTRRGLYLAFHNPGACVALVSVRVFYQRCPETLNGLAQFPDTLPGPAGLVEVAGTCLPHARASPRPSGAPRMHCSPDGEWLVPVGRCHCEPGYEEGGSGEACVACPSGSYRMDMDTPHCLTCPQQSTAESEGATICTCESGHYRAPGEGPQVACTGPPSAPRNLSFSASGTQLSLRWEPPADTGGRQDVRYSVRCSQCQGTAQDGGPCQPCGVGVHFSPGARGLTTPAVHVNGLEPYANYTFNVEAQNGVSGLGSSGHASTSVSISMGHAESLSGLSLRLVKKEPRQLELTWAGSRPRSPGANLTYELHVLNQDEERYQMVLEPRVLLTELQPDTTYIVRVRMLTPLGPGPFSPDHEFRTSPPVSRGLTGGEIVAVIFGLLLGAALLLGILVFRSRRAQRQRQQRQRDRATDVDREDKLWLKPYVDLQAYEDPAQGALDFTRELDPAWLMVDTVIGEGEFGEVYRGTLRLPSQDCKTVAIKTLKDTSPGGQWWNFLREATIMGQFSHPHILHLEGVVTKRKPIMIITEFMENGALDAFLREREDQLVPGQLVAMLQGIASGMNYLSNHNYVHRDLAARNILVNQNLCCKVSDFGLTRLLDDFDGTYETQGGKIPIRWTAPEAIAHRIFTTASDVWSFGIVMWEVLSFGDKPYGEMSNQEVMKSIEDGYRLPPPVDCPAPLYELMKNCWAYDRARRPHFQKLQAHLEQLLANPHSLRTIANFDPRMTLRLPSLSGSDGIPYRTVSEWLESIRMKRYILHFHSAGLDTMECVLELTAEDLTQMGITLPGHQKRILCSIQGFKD
Particulars: read-out: %Inh EPHA1.

For a further test, the target named is EIF2AK1 (Homo sapiens, UniProt Q9BQI3). The settings on record: read-out: %Inh EIF2AK1.
Another test concerns the target ACVR2B (Homo sapiens, UniProt Q13705). The settings on record: read-out: %Inh ACVR2B.
The target of the next test is CAMK1D (Homo sapiens, UniProt Q8IU85). Particulars: read-out: %Inh CAMK1D.
Another test addresses CSNK2A2 (Homo sapiens, UniProt P19784). The settings on record: read-out: %Inh CSNK2A2.
The target of another test is CDKL1 (Homo sapiens, UniProt Q00532). Particulars: read-out: %Inh CDKL1.

`COc1cccc(OC)c1C(=O)Nc1cccc(-c2nn3ccccc3c2-c2ccnc(Nc3cccc(F)c3)n2)c1` [UNC10225310A]: the inhibition at 1 µM in test [1] turned out to be 0%; at EPHA2 it was 11%; at FLT1, 32%; on ASK2, 0%; on BMPR1B, 21%; at EPHA1 it was 4%. Also, the inhibition at 1 µM was 0% at EIF2AK1; 27% on ACVR2B; 13% on CAMK1D; 23% on CSNK2A2; 15% at CDKL1.
For `O=c1cc(N2CCOCC2)nc2n(Cc3cccc(Cl)c3Cl)c(C3CC3)nn12` [UNC10225469A], the inhibition at 1 µM in test [1] stood at 9%; on EPHA2, 0%; at FLT1, 6%; on ASK2 it was 0%; at BMPR1B it was 0%; on EPHA1, 7%. The inhibition at 1 µM came to 0% at EIF2AK1; 0% at ACVR2B; 0% at CAMK1D; 0% at CSNK2A2; 20% on CDKL1.
On to `Cn1cc(-c2cnc(N)c3c(-c4ccc5c(c4)CCN5C(=O)Cc4ccccc4)csc23)cn1` [UNC10225012A], for which the inhibition at 1 µM in test [1] was 0%; at EPHA2 it was 0%; on FLT1, 79%; at ASK2, 17%; at BMPR1B it was 6%; at EPHA1 it was 11%. Also, the inhibition at 1 µM was 7% on EIF2AK1; 0% on ACVR2B; 11% at CAMK1D; 1% at CSNK2A2; 9% at CDKL1.
For the molecule `CS(=O)(=O)Cc1ccc(Nc2nccc(-c3c(-c4cccc(NC(=O)C5CCCCC5)c4)nn4ncccc34)n2)cc1` [UNC10225159A], the inhibition at 1 µM came out at 0% in [1]; 51% on EPHA2; 63% at FLT1; 34% on ASK2; 19% on BMPR1B; 6% on EPHA1. For the same molecule, the inhibition at 1 µM was 22% at EIF2AK1; 0% at ACVR2B; 0% on CAMK1D; 1% on CSNK2A2; 0% on CDKL1.
Take `Cc1ccc(NC(=O)Nc2cccc(C(F)(F)F)c2)cc1` [UNC10225187A]: the inhibition at 1 µM in [1] worked out at 0%; on EPHA2 it was 0%; on FLT1 it was 23%; on ASK2, 0%; on BMPR1B, 0%; on EPHA1, 17%. In addition, the inhibition at 1 µM on EIF2AK1 came out at 0%; on ACVR2B, 0%; on CAMK1D, 25%; on CSNK2A2 it was 0%; at CDKL1, 14%.
